Here are results for one compound from patent publication EP4644396A1 (Visionpharma (Nantong) Co., Ltd, priority 2022, dated 2024).

Broadly, the IC50 is the midpoint of a concentration-inhibition curve.

In experiment [1] the target is T1, human TLR7 (Homo sapiens, UniProt Q9NYK1).
T1 sequence (Q9NYK1 27-1049): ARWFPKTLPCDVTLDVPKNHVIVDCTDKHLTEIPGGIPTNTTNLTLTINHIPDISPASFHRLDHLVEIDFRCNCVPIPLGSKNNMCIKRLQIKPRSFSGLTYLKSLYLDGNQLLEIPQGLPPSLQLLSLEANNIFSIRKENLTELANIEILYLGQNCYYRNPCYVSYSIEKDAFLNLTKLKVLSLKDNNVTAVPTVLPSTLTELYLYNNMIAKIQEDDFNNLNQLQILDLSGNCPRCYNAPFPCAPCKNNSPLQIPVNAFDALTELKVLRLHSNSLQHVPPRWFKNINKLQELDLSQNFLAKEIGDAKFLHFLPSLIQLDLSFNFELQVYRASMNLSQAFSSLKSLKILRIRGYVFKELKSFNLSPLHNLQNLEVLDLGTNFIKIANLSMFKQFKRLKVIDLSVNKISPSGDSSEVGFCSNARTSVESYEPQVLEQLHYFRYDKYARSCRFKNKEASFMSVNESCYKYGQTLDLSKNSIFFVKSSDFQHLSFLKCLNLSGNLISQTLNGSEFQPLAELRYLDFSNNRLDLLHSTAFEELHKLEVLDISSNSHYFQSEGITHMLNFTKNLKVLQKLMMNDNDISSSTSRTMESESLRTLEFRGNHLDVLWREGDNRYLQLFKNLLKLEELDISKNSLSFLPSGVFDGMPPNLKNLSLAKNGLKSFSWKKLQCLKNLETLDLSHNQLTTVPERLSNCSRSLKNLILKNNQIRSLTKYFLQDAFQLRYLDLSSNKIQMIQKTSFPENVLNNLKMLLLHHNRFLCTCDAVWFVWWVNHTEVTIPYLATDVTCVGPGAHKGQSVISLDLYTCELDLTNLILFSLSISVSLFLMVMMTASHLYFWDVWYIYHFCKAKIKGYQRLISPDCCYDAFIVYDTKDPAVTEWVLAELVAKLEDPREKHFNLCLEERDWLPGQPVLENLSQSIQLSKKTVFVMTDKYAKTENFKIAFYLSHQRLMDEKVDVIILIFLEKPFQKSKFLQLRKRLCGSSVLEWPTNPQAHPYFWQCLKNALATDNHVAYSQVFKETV
The experiment in a line: HEK-Blue hTLR7 SEAP reporter gene inhibition assay. Type of experiment: cell-based. Particulars: hTLR7 HEK-Blue cells, TLR7 ligand Gardiquimod 10 µM, 20 hours, SEAP by Quanti-blue; class symbols; read-out: HEK-Blue hTLR7 IC50. The method, boiled down:
(§1)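 SEAP read-out by Quanti-Blue after 20 h stimulation gave IC50 values. Stable hTLR7 or hTLR8 HEK-Blue cells were pretreated 15 min with compound at 0.001–36 µM final, then stimulated with 10 µM Gardiquimod (TLR7) or 10 µM TLR8 ligand.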
(A reporter such as luciferase makes a cellular process visible.)

Experiment [2] concerns the target T2, human TLR8 (Homo sapiens, UniProt Q9NR97).
T2 construct: expressed in transfected cells
T2 sequence (Q9NR97 27-1041): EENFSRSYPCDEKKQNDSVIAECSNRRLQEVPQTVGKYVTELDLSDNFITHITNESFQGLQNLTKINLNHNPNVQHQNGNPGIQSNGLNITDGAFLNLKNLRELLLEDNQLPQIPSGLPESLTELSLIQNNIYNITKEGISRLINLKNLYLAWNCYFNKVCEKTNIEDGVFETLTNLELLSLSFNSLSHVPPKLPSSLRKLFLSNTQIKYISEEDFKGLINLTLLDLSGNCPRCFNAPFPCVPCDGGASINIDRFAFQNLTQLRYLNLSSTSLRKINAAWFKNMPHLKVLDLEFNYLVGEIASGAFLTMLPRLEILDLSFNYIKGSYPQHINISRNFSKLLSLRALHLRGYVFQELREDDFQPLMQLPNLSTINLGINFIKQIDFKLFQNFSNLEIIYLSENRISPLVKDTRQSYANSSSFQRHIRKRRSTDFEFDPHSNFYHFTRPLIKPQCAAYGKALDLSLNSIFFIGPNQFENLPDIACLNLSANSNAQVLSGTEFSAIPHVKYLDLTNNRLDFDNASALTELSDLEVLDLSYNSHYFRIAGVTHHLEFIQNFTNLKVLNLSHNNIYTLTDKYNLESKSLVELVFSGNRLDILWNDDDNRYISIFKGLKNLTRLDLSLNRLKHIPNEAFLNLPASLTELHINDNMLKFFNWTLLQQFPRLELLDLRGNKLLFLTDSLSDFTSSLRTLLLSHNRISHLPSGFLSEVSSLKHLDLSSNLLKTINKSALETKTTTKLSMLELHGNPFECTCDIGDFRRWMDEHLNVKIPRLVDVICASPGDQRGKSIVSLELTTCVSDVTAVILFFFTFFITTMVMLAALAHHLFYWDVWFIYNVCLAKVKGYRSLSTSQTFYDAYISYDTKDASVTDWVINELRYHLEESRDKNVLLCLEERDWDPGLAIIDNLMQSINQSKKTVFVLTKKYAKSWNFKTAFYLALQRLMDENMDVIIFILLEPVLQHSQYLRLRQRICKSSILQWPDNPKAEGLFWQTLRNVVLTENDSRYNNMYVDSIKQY
The experiment can be described thus: HEK-Blue hTLR8 SEAP reporter gene inhibition assay. Type of experiment: cell-based. The note with it: hTLR8 HEK-Blue cells, TLR8 ligand 10 µM, 20 hours, SEAP by Quanti-blue; class symbols; read-out: HEK-Blue hTLR8 IC50. An outline of the steps: as §1

Bounds are passed on as bounds.

As to `C[C@@H]1CN(c2ccc(C#N)n3ncc(F)c23)Cc2c3c(nn21)CN[C@@H](CO)C3` [Example I-77, 3-Fluoro-4-((4R,9R)-9-(hydroxymethyl)-4-methyl-3,4,7,8,9,10-hexahydropyrido [3',4':3,4]pyrazolo[1,5-a]pyrazin-2(1H)-yl)pyrazolo[1,5-a]pyridine-7-carbonitrile], the values for the IC50 in experiment [1] and in experiment [2] were > 50 nM and < 100 nM, respectively.
